# Source: patent US20110117169A1, “METHODS AND COMPOSITIONS FOR CAPTURE OF CELLS” (AFFINERGY, INC., priority 2009, published 2011)
# Ends that are not written are not given here. spacer = not defined here
# Columns and labels:
# [1] = system: hMSCs; assay: hMSC attachment to PEEK discs in collagen solution ([…]-GLO); format: cell-based, human; settings: 2 h at 37° C., highest concentration of collagen
# Description: To test whether collagen having a covalently attached cell binding peptide could increase cell adhesion to PEEK discs, PEEK discs were coated with collagen and hMSC attachment was measured. Industrial-grade PEEK discs were obtained from […] POLYMERS, Inc Houston, Tex. The discs were machined with a steel punch for a 0.5 cm diameter (thickness of 0.125). Discs (n=2 per group) were coated by two methods. In the first method, the discs were incubated overnight with varying concentrations of cell binding peptide SEQ ID NO: 4-modified collagen (88.5 μmol peptide/g of collagen). The discs were washed to remove unattached peptide and collagen, and the attached biotinylated peptide was detected with Neutravidin-HRP in an ELISA assay. […] In the second method, uncoated PEEK discs were placed in a solution of unmodified or peptide-modified collagen and hMSCs. After 2 h at 37° C., discs were moved to a new plate and washed with PBS to remove unbound cells. The number of attached cells was counted by […]-GLO. […] On the other hand, peptide-conjugated collagen increased cell attachment relative to both uncoated and collagen-coated PEEK. At the highest concentration of peptide-modified collagen, 26% of the cells were attached, whereas only 9% of cells attached to the uncoated discs and 11% to the discs coated with unmodified collagen.
# [2] = system: HUVECs; assay: HUVEC capture and retention on plates coated with peptide-modified collagen ([…]-GLO); format: cell-based, human
# Description: After washing, 10,000 HUVECs were added per well in serum free medium for 30 min at 37° C. The plates were washed 3 times with PBS containing 2% FBS, and captured cells were detected with […]-GLO (INVITROGEN) using a luminometer and a standard curve. […] For FIG. 21B, the collagen was extracted in gel loading buffer, separated by PAGE, and total protein was stained with SIMPLYBLUE (INVITROGEN). […] Plates with captured HUVECs were prepared as described in FIG. 20A. […]
# [3] = system: ECFCs; assay: Capture of ECFCs in flow on coated coverslips (parallel plate flow chamber); format: cell-based, human; settings: 2×10^6 ECFC circulated 2 h at 37° C.
# Description: The ability of the collagen modified with endothelial cell binding peptide SEQ ID NO: 4 to capture ECFCs in flow was analyzed as follows. Glass coverslips were coated with unmodified collagen or cell binding peptide modified-collagen and mounted in a polycarbonate parallel plate flow chamber. PBS/10% FBS was circulated through a closed 150 ml system to block the coverslips. Approximately 2×10^6 ECFC were injected into the system and were circulated for 2 h at 37° C. Coverslips were washed in PBS to remove loosely adhering cells, the remaining cells on the coverslips were lysed in CELLTITERGLO (INVITROGEN, CA), and the cells enumerated by luminescence against a standard curve.
# [4] = system: human dermal fibroblasts; assay: Fibroblast binding to peptide-modified collagen coated plates; format: cell-based; settings: for fibroblast binding compared to unmodified collagen: higher concentrations / FIG. 28 summary
# Description: The experiment was performed according to the following procedure. Cell-binding peptide (SEQ ID NO: 4) was covalently attached to soluble collagen as described herein at Example 7. 96-well plates were coated with various amounts of unmodified or the peptide-modified collagen (177 μmol peptide/g collagen) over night at 4° C. Unbound collagen was removed and the plates were blocked for 1 h. After washing, 5,000 human dermal fibroblasts were added per well in serum-free medium for 30 min at 37° C. The plates were washed, and bound cells were detected with […]-GLO (PROMEGA) using a luminometer. At 0.0025 μg collagen, fibroblast binding was increased 11-fold for the peptide-modified collagen compared to unmodified collagen (see FIG. 28).
# [5] = system: hMSCs; assay: Adherence of hMSCs to polypropylene in presence of peptide-modified collagen; format: cell-based, human; settings: after binding in presence of the collagen
# [6] = system: HUVECs; assay: Retention of HUVECs under shear stress on coated coverslips; format: cell-based, human
# Description: The ability of the collagen modified with endothelial cell binding peptide SEQ ID NO: 4 to retain HUVECs under shear stress was analyzed as follows. Glass cover-slips were coated with peptide conjugated collagen or unmodified collagen and seeded with HUVECs. Coverslips were secured in a polycarbonate slide with six 1 cm diameter wells enabling simultaneous testing of materials. A closed loop peristaltic pump was used to expose the samples to flow conditions for 30 minutes at laminar flow rates up to 12 dynes/cm^2 in PBS containing 2% FBS. The number of cells retained on the cover slip was determined using […]-GLO (INVITORGEN) and a luminometer.
# [7] = system: hMSCs; assay: Binding of peptide-modified collagen to hMSCs, FACS with Neutravidin-PE; design: species or system human; settings: 20,000 hMSCs, 1 hr on ice, serial dilution from 25 μM
# Description: In a separate experiment, cell binding peptide SEQ ID NO: 4 was covalently attached to collagen as described herein and tested for its ability to bind hMSCs using an experimental setup similar to that described above. Briefly, collagen with covalently attached SEQ ID NO: 4 peptide was serial diluted (starting from 25 μM) and mixed with 20,000 hMSCs in 2% FBS/PBS. After 1 hr incubation on ice, cells were washed twice with 2% FBS/PBS and cells bound to the collagen with covalently attached SEQ ID NO: 4 peptide were detected with Neutravidin-PE. Cells were washed, transferred into 96-well plates for FACS analysis.
substance,measurement,setting,value
"peptide-modified collagen: SEQ ID NO: 4 with spacer and lysine covalently attached to soluble bovine type I collagen via BS^3 crosslinking reagent (SSFWDVCQGDGTCYGGGSR-{spacer-Lys}; cysteine pairing not given here; reading uncertain; also: covalently attached to soluble bovine type I collagen via BS3 crosslinker, spacer not given here)",cells attached to PEEK discs,[1],26%
same,HUVECs retained compared to unmodified collagen after agitation,[2]; 1 hour with agitation in PBS containing 2% FBS,7 fold
same,increase in HUVEC retention over unmodified collagen,"[2]; 10,000 HUVECs per well, serum free medium, 30 min at 37° C.",3 fold
same,ECFCs captured in flow compared to unmodified collagen,[3],about 20 fold
same,increase in fibroblast binding compared to unmodified collagen,"[4]; 0.0025 μg collagen, 5,000 fibroblasts per well, 30 min at 37° C.",11 fold
same,fibroblast binding compared to unmodified collagen,[4]; listed as SEQ ID NO: 4 peptide-modified collagen,Increased cell binding
same,fibroblast binding compared to unmodified collagen,[4]; listed as cell binding peptide (SEQ ID NO: 4)-modified collagen,enhanced binding
same,hMSCs retained on the walls of polypropylene plates,[5],~80%
same,effect of shear stress on cell capture,"[6]; 30 minutes, laminar flow up to 12 dynes/cm^2",did not significantly affect cell capture
same,HUVECs captured compared to unmodified collagen,"[6]; coated glass cover-slips, PBS containing 2% FBS",about 3 fold
same,increase in fluorescence signal compared to control,[7],~100 fold
